In data set [1] the test system is ob/ob mice. Kind of data set: Metabolic syndrome model in ob/ob mice: serum glucose, AST, ALT, cholesterol, weight after oral feeding. It counts as in vivo. How it is done: Mice were fed a total volume of 0.2 ml by gastric intubation with an 18-gauge stainless steel feeding needle (Thomas Scientific). Mice were fed once a day for five consecutive days with either phosphate-buffered saline (PBS), hamster isotype control (IC 5 μg/feeding), anti CD3 antibody (5 ug/feeding), or β-glucosylceramide (GC), 100 μg/feeding (dissolved in ethanol and emulsified in PBS). Mice fed with the combination of anti-CD3 and GC received 5 ug anti-CD3 and 100 ug GC in 0.2 ml PBS. Mice were injected IP with 100 μg anti TGF-β one day before the feeding and than on alternative days another 4 injections, a total of 500 μg.
Sera from individual mice were obtained. Serum AST and ALT levels were measured by an automatic analyzer.
In order to investigate the potential effect of combining two different immune-modulatory compounds on an immune-related disorder such as the metabolic syndrome, the ob/ob leptin deficient mice that manifest insulin resistance, hypelipidemia, fatty liver, and diabetes, were used as an animal model.
Four groups of ob/ob mice were tested, groups 1 and 2 served as control groups (group of untreated mice and group of mice treated with GC and Isotype Control, respectively), group 3 were treated with anti CD3 (5 microgram) antibody and group 4 were orally administered with a combination of anti-CD3 (5 μg) antibody and β-glucosylceramide (GC, 100 μg) per dose for five consecutive days. Animals were assessed on days 10 and 28. The doses studied were based on previous studies of anti-CD3 and GC in animal models [Ochi, H., et al. Nat. Med. 12:627-635 (2006); Zigmond, E. et al. Gut 56:82-89 (2007); Ilan, Y. et al. Transplantation 83:458-467 (2007)]. Determination of hepatic fat content and inflammation was performed by measurement of serum Alanine aminotransferase (ALT) and Aspartate aminotransferase (AST) levels. Serum glucose and cholesterol levels were also assessed.

In data set [2] the test system is ob/ob mice. In words: Pathologic analysis of pancreas, liver and muscle of ob/ob mice. The data set is classed as in vivo. The conditions noted are these: vs PBS. How it is done:
The liver, pancreas, and muscle were removed from control or treated mice and placed in 4% formalin followed by paraffin embedding. Five sections were prepared from each organ. The tissues were stained for heamtoxylin eosin and liver sections were additionally stained with oil-red-o. All sections were blindly scored by a pathologist.
The inventors next investigated the beneficial effect of the combined oral composition of anti-CD3 plus GC treatment of ob/ob mice by pathologic analysis of pancreas, liver and muscle. […] In addition, a reversal of muscle fiber thinning and increased nuclei was clearly observed in animals treated with the oral combination of anti-CD3 plus GC.

The test system of a further data set is DCs from MLN. In words: TGF-β and IL-10 expression in CD11C+ DCs from MLN by RT PCR. The conditions noted are these: RT PCR relative to GAPDH; 3 days after feeding; reversed by anti-TGF-β. The data set is classed as in vivo, mice. As to the method:
MLN CD11C+ DCs were isolated by magnetic separation using anti CD11C microbeads (Miltenyi Biotec). Total RNA was isolated from cell pellets using the RNA easy Mini Kit (QIAGEN) and stored at −80° C. First strand cDNA synthesis was performed on 0.5-1 μg of total RNA for each RNA sample using Taqman reverse transcription reagents. The cDNA was amplified using sequence specific primers for IL-10, and TGF-β and real-time PCR mix (Applied Biosystems) in an ABI7500 cycler. The GAPDH gene was used as an endogenous control to normalize for differences in the amount of total RNA in each sample. All values were expressed as a fold increase or decrease relative to the expression of GAPDH.
To investigate the effect of feeding the anti-CD3 plus GC combination on DCs, the inventors first measured the expression of TGF-β and IL-10 in DCs from MLN. […] Injection of anti-TGF-β reversed the effect. The inventors then investigated the effect of DCs obtained from animals treated with the oral combination of anti-CD3 plus GC, or from the control PBS treated animals, on T-cells harvested from mice fed either with PBS or with the combination of anti-CD3 plus GC. T cells were stimulated with anti-CD3 in vitro. […]

A further data set has as its system MLN cells. In words: Cytokine production (ELISA) by MLN cells or splenocytes of fed ob/ob mice stimulated in vitro with anti-CD3. The data set is classed as in vivo. The conditions noted are these: in vitro 1 μg/ml anti-CD3 stimulation; vs PBS. How it is done:
For cytokine assays, splenocytes or MLN cells were grown (10^6 cells per well) in serum-free medium X-VIVO 20 (BioWhittaker) with 1 ug/ml soluble anti-CD3 antibody. Supernatants were collected after 40 h for IL-2, IL-4, IL6, IL-10, IFN-γ, and IL-17, or after 72 h for TGF-β and quantitative ELISA was performed using paired antibodies and recombinant cytokines obtained from PharMingen according to their recommendations. When purified T-cells ([…] cells per well) were checked for cytokine secretion, they were stimulated with 1 ug/ml anti-CD3 in the presence of DCs (10×10^3 cells per well) for 40 or 72 h and the cytokine content in the supernatant was measured as outlined above. The tissue cytokine profile was determined for gut, liver, and pancreas. Part of the organ was weighed and homogenized on ice with TISSUEMISER (Fisher Scientific) in buffer containing PBS/BSA/TWEEN and protein inhibitor tablets (Roche). […]
To investigate the potential mechanisms by which oral combination of anti-CD3 plus GC affected the metabolic abnormalities describe above, the inventors next measured cytokine production by MLN cells obtained from the different experimental groups, that were then stimulated in vitro with 1 μg/ml anti-CD3 for five days. […] The inventors next measured cytokine levels in supernatants from homogenized tissues from ob/ob treated mice. […]
On the technique in general: An ELISA detects its analyte on a solid surface through an enzyme-linked reagent.

As to β-glucosylceramide [GC], the weight of animals entry with ob/ob mice [1] (compared to control) is recorded as “No change”. The “serum AST levels” value with ob/ob mice [1] (ob/ob mice fed daily for 5 days, 10 days after last feeding, PBS 416 U/l) came to 310 U/l. The Serum cholesterol levels in the data set on ob/ob mice [1] (ob/ob mice fed daily for 5 days, PBS 218 mg %) is on record as 225 mg %. In addition, the blood glucose in the data set with ob/ob mice [1] (ob/ob mice fed daily for 5 days, tested 10 days after last feeding, PBS 367 mg %) is 337 mg %. In addition, in the data set with ob/ob mice [2], the hepatic fat accumulation entry is on record as “some effect” and the pancreatic hyperplasia entry was “some effect”. Further, in the data set with DCs from MLN, the “IL-10 expression in DCs from MLN” value is “not” and the “TGF-β expression in DCs from MLN” value is recorded as “not”. In the data set with MLN cells, the “production of IL-10 by MLN cells” value is on record as “No effects” and the “production of TGF-β by MLN cells” value is “No effects”.

Values taken from US9981037B2, “Combination therapy of beta-glycolipids and antibodies for the treatment of immune-related disorders” (HADASIT MEDICAL RESEARCH SERVICES AND DEVELOPMENT LTD., priority 2008, dated 2018).
